pIC50: −log10 of the molar value. Where only a bound is given, the exact number is not on record here.

In assay [1] the test system is MCF7. In words: inhibitory concentration against the growth of breast cancer MCF-7 cell line after 72 hr of exposure. The assay is classed as functional, cell-based. The settings on record: Homo sapiens, MCF7, 72 h.
Assay [2] relates to A549. In words: inhibitory concentration against the growth of Non-small-cell lung carcinoma A549 cell line after 72 hr of exposure. The settings on record: Homo sapiens, A549, 72 h. Format: functional, cell-based.

For orientation: pIC50 means −log10 of the IC50, conventionally taken in molar units. Consider `CCCCOC(=O)N[C@@H](c1cccs1)[C@@H](O)C(=O)O[C@H]1C[C@@]2(O)[C@@H](OC(=O)c3cc(OC)ccc3OC)[C@@H]3[C@]4(OC(C)=O)CO[C@@H]4C[C@H](O)[C@@]3(C)C(=O)[C@H](OC(C)=O)C(=C1C)C2(C)C`, for which the pIC50 in assay [1] and in assay [2] was 7.40 each time.

On to `COc1ccc(OC)c(C(=O)O[C@H]2[C@@H]3[C@]4(OC(C)=O)CO[C@@H]4C[C@H](O)[C@@]3(C)C(=O)[C@H](OC(C)=O)C3=C(C)[C@@H](OC(=O)[C@H](O)[C@@H](NC(=O)c4ccco4)c4ccco4)C[C@]2(O)C3(C)C)c1`, for which the negative logarithm of the IC50 (pIC50) in assay [1] was 6.92; in assay [2], 7.05.

For the molecule `CCCCOC(=O)N[C@@H](C=C(C)C)[C@@H](O)C(=O)O[C@H]1C[C@@]2(O)[C@@H](OC(=O)c3cc(OC)ccc3OC)[C@@H]3[C@]4(OC(C)=O)CO[C@@H]4C[C@H](O)[C@@]3(C)C(=O)[C@H](OC(C)=O)C(=C1C)C2(C)C`, the negative-log IC50 (pIC50) in assay [1] is 7.52; in assay [2], 7.40.

With `COc1ccc(OC)c(C(=O)O[C@H]2[C@@H]3[C@]4(OC(C)=O)CO[C@@H]4C[C@H](O)[C@@]3(C)C(=O)[C@H](OC(C)=O)C3=C(C)[C@@H](OC(=O)[C@H](O)[C@@H](NC(=O)c4ccccc4)c4cccs4)C[C@]2(O)C3(C)C)c1`, the pIC50 in assay [1] and in assay [2] was less than 5.52 each time.

In the case of `COc1ccc(OC)c(C(=O)O[C@H]2[C@@H]3[C@]4(OC(C)=O)CO[C@@H]4C[C@H](O)[C@@]3(C)C(=O)[C@H](OC(C)=O)C3=C(C)[C@@H](OC(=O)[C@H](O)[C@H](C=C(C)C)NC(=O)c4cccs4)C[C@]2(O)C3(C)C)c1`, the figures for the pIC50 in assay [1] and in assay [2] were 7.52 and 7.40, respectively.

Turning to `CCCCOC(=O)N[C@@H](c1ccco1)[C@@H](O)C(=O)O[C@H]1C[C@@]2(O)[C@@H](OC(=O)c3cc(OC)ccc3OC)[C@@H]3[C@]4(OC(C)=O)CO[C@@H]4C[C@H](O)[C@@]3(C)C(=O)[C@H](OC(C)=O)C(=C1C)C2(C)C`, the negative-log IC50 (pIC50) in assay [1] and in assay [2] was 7.52 throughout.

For the molecule `COc1ccc(OC)c(C(=O)O[C@H]2[C@@H]3[C@]4(OC(C)=O)CO[C@@H]4C[C@H](O)[C@@]3(C)C(=O)[C@H](OC(C)=O)C3=C(C)[C@@H](OC(=O)[C@H](O)[C@@H](NC(=O)c4cccs4)c4cccs4)C[C@]2(O)C3(C)C)c1`, the negative logarithm of the IC50 (pIC50) in assay [1] and in assay [2] was 7.52 each time.

`COc1ccc(OC)c(C(=O)O[C@H]2[C@@H]3[C@]4(OC(C)=O)CO[C@@H]4C[C@H](O)[C@@]3(C)C(=O)[C@H](OC(C)=O)C3=C(C)[C@@H](OC(=O)[C@H](O)[C@@H](NC(=O)OC(C)(C)C)c4cccs4)C[C@]2(O)C3(C)C)c1`: the negative-log IC50 (pIC50) in assay [1] and in assay [2] was 7.52 each time.

Take `COc1ccc(OC)c(C(=O)O[C@H]2[C@@H]3[C@]4(OC(C)=O)CO[C@@H]4C[C@H](O)[C@@]3(C)C(=O)[C@H](OC(C)=O)C3=C(C)[C@@H](OC(=O)[C@H](O)[C@@H](NC(=O)c4ccccc4)c4ccccc4)C[C@]2(O)C3(C)C)c1`: the negative logarithm of the IC50 (pIC50) in assay [1] is 7.52; in assay [2], 6.89.

As to `COc1ccc(OC)c(C(=O)O[C@H]2[C@@H]3[C@]4(OC(C)=O)CO[C@@H]4C[C@H](O)[C@@]3(C)C(=O)[C@H](OC(C)=O)C3=C(C)[C@@H](OC(=O)[C@H](O)[C@@H](NC(=O)c4cccs4)c4ccco4)C[C@]2(O)C3(C)C)c1`, the figures for the negative-log IC50 (pIC50) in assay [1] and in assay [2] were 7.22 and 7.00, respectively.

As for `C/C=C/C(=O)N[C@@H](C=C(C)C)[C@@H](O)C(=O)O[C@H]1C[C@@]2(O)[C@@H](OC(=O)c3cc(OC)ccc3OC)[C@@H]3[C@]4(OC(C)=O)CO[C@@H]4C[C@H](O)[C@@]3(C)C(=O)[C@H](OC(C)=O)C(=C1C)C2(C)C`, the pIC50 in assay [1] is 8.00; in assay [2] it was 7.52.

Turning to `C/C=C/C(=O)N[C@@H](c1ccco1)[C@@H](O)C(=O)O[C@H]1C[C@@]2(O)[C@@H](OC(=O)c3cc(OC)ccc3OC)[C@@H]3[C@]4(OC(C)=O)CO[C@@H]4C[C@H](O)[C@@]3(C)C(=O)[C@H](OC(C)=O)C(=C1C)C2(C)C`, the negative logarithm of the IC50 (pIC50) is 6.89 in assay [1] and 6.80 in assay [2].

Regarding `COc1ccc(OC)c(C(=O)O[C@H]2[C@@H]3[C@]4(OC(C)=O)CO[C@@H]4C[C@H](O)[C@@]3(C)C(=O)[C@H](OC(C)=O)C3=C(C)[C@@H](OC(=O)[C@H](O)[C@H](C=C(C)C)NC(=O)c4ccccc4)C[C@]2(O)C3(C)C)c1`, the pIC50 in assay [1] and in assay [2] was 7.40 throughout.

On to `COc1ccc(OC)c(C(=O)O[C@H]2[C@@H]3[C@]4(OC(C)=O)CO[C@@H]4C[C@H](O)[C@@]3(C)C(=O)[C@H](OC(C)=O)C3=C(C)[C@@H](OC(=O)[C@H](O)[C@@H](NC(=O)c4ccccc4)c4ccco4)C[C@]2(O)C3(C)C)c1`, for which the pIC50 in assay [1] is 6.68; in assay [2], 6.66.

On to `COc1ccc(OC)c(C(=O)O[C@H]2[C@@H]3[C@]4(OC(C)=O)CO[C@@H]4C[C@H](O)[C@@]3(C)C(=O)[C@H](OC(C)=O)C3=C(C)[C@@H](OC(=O)[C@H](O)[C@@H](NC(=O)C=C(C)C)c4ccco4)C[C@]2(O)C3(C)C)c1`, for which the results for the pIC50 in assay [1] and in assay [2] were 7.40 and 7.52, respectively.

As for `COc1ccc(OC)c(C(=O)O[C@H]2[C@@H]3[C@]4(OC(C)=O)CO[C@@H]4C[C@H](O)[C@@]3(C)C(=O)[C@H](OC(C)=O)C3=C(C)[C@@H](OC(=O)[C@H](O)[C@H](C=C(C)C)NC(=O)OC(C)(C)C)C[C@]2(O)C3(C)C)c1`, the negative-log IC50 (pIC50) in assay [1] and in assay [2] was 7.40 throughout.

Consider `COc1ccc(OC)c(C(=O)O[C@H]2[C@@H]3[C@]4(OC(C)=O)CO[C@@H]4C[C@H](O)[C@@]3(C)C(=O)[C@H](OC(C)=O)C3=C(C)[C@@H](OC(=O)[C@H](O)[C@H](C=C(C)C)NC(=O)c4ccco4)C[C@]2(O)C3(C)C)c1`, for which the values for the pIC50 in assay [1] and in assay [2] were 7.52 and 7.22, respectively.

`COc1ccc(OC)c(C(=O)O[C@H]2[C@@H]3[C@]4(OC(C)=O)CO[C@@H]4C[C@H](O)[C@@]3(C)C(=O)[C@H](OC(C)=O)C3=C(C)[C@@H](OC(=O)[C@H](O)[C@@H](NC(=O)c4ccco4)c4cccs4)C[C@]2(O)C3(C)C)c1`: the negative-log IC50 (pIC50) in assay [1] was 7.22; in assay [2], 7.30.

For the molecule `COc1ccc(OC)c(C(=O)O[C@H]2[C@@H]3[C@]4(OC(C)=O)CO[C@@H]4C[C@H](O)[C@@]3(C)C(=O)[C@H](OC(C)=O)C3=C(C)[C@@H](OC(=O)[C@H](O)[C@H](C=C(C)C)NC(=O)C=C(C)C)C[C@]2(O)C3(C)C)c1`, the pIC50 in assay [1] and in assay [2] was 7.70 each time.

Regarding `COc1ccc(OC)c(C(=O)O[C@H]2[C@@H]3[C@]4(OC(C)=O)CO[C@@H]4C[C@H](O)[C@@]3(C)C(=O)[C@H](OC(C)=O)C3=C(C)[C@@H](OC(=O)[C@H](O)[C@@H](NC(=O)C=C(C)C)c4cccs4)C[C@]2(O)C3(C)C)c1`, the pIC50 in assay [1] is 7.30; in assay [2] it was 7.40.

For the molecule `C/C=C/C(=O)N[C@@H](c1cccs1)[C@@H](O)C(=O)O[C@H]1C[C@@]2(O)[C@@H](OC(=O)c3cc(OC)ccc3OC)[C@@H]3[C@]4(OC(C)=O)CO[C@@H]4C[C@H](O)[C@@]3(C)C(=O)[C@H](OC(C)=O)C(=C1C)C2(C)C`, the pIC50 is 6.80 in assay [1] and 6.74 in assay [2].

For the molecule `COc1ccc(OC)c(C(=O)O[C@H]2[C@@H]3[C@]4(OC(C)=O)CO[C@@H]4C[C@H](O)[C@@]3(C)C(=O)[C@H](OC(C)=O)C3=C(C)[C@@H](OC(=O)[C@H](O)[C@@H](NC(=O)OC(C)(C)C)c4ccccc4)C[C@]2(O)C3(C)C)c1`, the pIC50 was 7.22 in assay [1] and 7.30 in assay [2].

Turning to `COc1ccc(OC)c(C(=O)O[C@H]2[C@@H]3[C@]4(OC(C)=O)CO[C@@H]4C[C@H](O)[C@@]3(C)C(=O)[C@H](OC(C)=O)C3=C(C)[C@@H](OC(=O)[C@H](O)[C@@H](NC(=O)OC(C)(C)C)c4ccco4)C[C@]2(O)C3(C)C)c1`, the values for the pIC50 in assay [1] and in assay [2] were 7.40 and 7.52, respectively.

With `CC(=O)O[C@@]12CO[C@@H]1C[C@H](O)[C@@]1(C)C(=O)[C@H](O)C3=C(C)[C@@H](OC(=O)[C@H](O)[C@@H](NC(=O)OC(C)(C)C)c4ccccc4)C[C@@](O)([C@@H](OC(=O)c4ccccc4)[C@H]21)C3(C)C` [DOCETAXEL], the pIC50 in assay [1] and in assay [2] was 6.00 each time.

With `CC(=O)O[C@H]1C(=O)[C@@]2(C)[C@H]([C@H](OC(=O)c3ccccc3)[C@]3(O)C[C@H](OC(=O)[C@H](O)[C@@H](NC(=O)c4ccccc4)c4ccccc4)C(C)=C1C3(C)C)[C@]1(OC(C)=O)CO[C@@H]1C[C@@H]2O` [PACLITAXEL], the results for the negative logarithm of the IC50 (pIC50) in assay [1] and in assay [2] were 6.10 and 5.77, respectively.

For the origin of these results see ChEMBL document CHEMBL1138706, “Synthesis and biological evaluation of novel taxoids designed for targeted delivery to tumors” (Bioorg Med Chem Lett, 2004).
